# Where two headings read alike, the source gives them in different places.
# Experiments:
# accommodation = conditions: systemic intake; cited from earlier work
# human eye = conditions: concentration of 1 wt. %; cited from earlier work
# myopia [1] = conditions: cited from earlier work
# primate eyes = experiment: Choroidal thickness via Ocular Coherence Tomography (OCT) after eye drops in primate eyes; conditions: atropine at 0.1 wt. % concentration; data not shown
# myopia [2] = conditions: oral administration, young myopic children, one year; cited from earlier work
smiles,measurement,setting,value
Cn1c(=O)c2c(ncn2C)n(C)c1=O [caffeine],accommodation,accommodation,enhances accommodation
same,safety of topical use,human eye,safely been used topically
CN1[C@@H]2CC[C@H]1C[C@@H](OC(=O)C(CO)c1ccccc1)C2 (stereo partly drawn) [atropine],effect on accommodative amplitude,myopia [1]; 0.01 wt. %,not significant
same,pupil size increase,myopia [1]; 0.01 wt. %,minimal
same,adverse effects,myopia [1]; concentrations of 1% and 0.5%,significant short term adverse effects
same,progression of myopia,myopia [1]; initially used in concentrations of approximately 1%,slow the progression of myopia
same,axial length elongation,"myopia [1]; low dose, 0.01 wt %",not effective in reducing axial length elongation
same,side effects,"myopia [1]; low-concentration topical, 0.01 wt. %",not induce side effects
same,adverse effects,primate eyes,adverse effects result
Cn1cnc2[nH]c(=O)[nH]c(=O)c21 [7-methylxanthine],axial eye growth,myopia [2],retards axial eye growth
same,progression of myopia,myopia [2],slowing of the progression of myopia
same,side effects,myopia [2],without significant side effects
